# Measured values: US20100285959A1, “HERBICIDAL MIXTURES” (priority 2006, published 2010)
# Where two headings read alike, the source gives them in different places.
# What was measured:
# mixed hardwoods (MXDSP) = assay: Test 13 field trial, postemergence, brush weeds; format: in vivo, Nyssa sylvatica, Acer rubrum, Liquidambar styraciflua; details: 56 DAA; g a.i./ha: Cpd 2 250; Fosamine-ammonium 6700
# Description: (§1) Plots were established in non-crop land and were 6.1 m long by 3.0 m wide. […] Treatments were applied postemergence to the brush weeds using a backpack sprayer delivering a spray volume of 468 L/ha using a pressure of 241 kPa. […] All treatments also included a surfactant. […] Results are the means of the three replicates.
# oak species (QUESS) = assay: Test 13 field trial, postemergence, brush weeds; format: in vivo, Quercus L. spp.; details: 56 DAA; g a.i./ha: Cpd 2 250; Fosamine-ammonium 6700
# Description: as §1
# wheat (TRZAW) = tested on: wheat (TRZAW); parameters: species or system Triticum aestivum; details: in vivo
# Method: (§2) A greenhouse test was conducted to evaluate the effects of Compounds 1 and 2, applied preemergence, on the plant species corn (ZEAMD, Zea mays ssp. indentata) and wheat (TRZAW, Triticum aestivum L.) grown from seed treated with and without naphthalic anhydride. Naphthalic anhydride was applied at a rate of 1% wt/wt basis to corn and wheat seed. Seed treatments were made as follows for evaluations of the chemical materials employed. One-hundred grams of each crop seed were placed in a separate self-closing plastic bag to which 1 gram of the chemical material was added. The bag containing the seed was tightly closed and gently agitated thereby allowing the seed to slowly come in contact with the chemical material to achieve maximal distribution on the seed surface, arriving at a uniform coverage. Treatment rate comparisons between spray application and seed treatment materials were made on the calculated area rate of naphthalic anhydride in grams active ingredient per hectare for a given crop. These rates were calculated based on a typical seeding rate per hectare used for agronomic production of a given crop. For wheat, a typical average seeding rate is 200 wheat seeds per square meter which weigh 6.8 g. For corn, a typical average seeding rate is 7.5 corn seeds per square meter which weigh 2.0 g. […] Corn treatments were replicated three times. Wheat treatments were replicated two times. […]
# corn (ZEAMD) [1] = tested on: corn (ZEAMD); parameters: species or system Zea mays ssp. indentata; details: in vivo
# Method: as §2
# [2] = tested on: common lambsquarters (CHEAL); assay: Test 3 field trial, emerged weeds before corn planting; format: in vivo, Chenopodium album; details: 68 DAA; Cpd 2 100, glyphosate 1540, paraquat 1150 g a.i./ha, alone or combined
# Description: (§3) Corn seeds (hybrid ‘Pioneer 33J56’) were planted in early spring season, 3.8 cm deep in a silt loam soil having 2.4% organic matter and a pH of 6. Plots were 6.1 m long by 2.7 m wide with rows spaced 91.4 cm apart. The field was managed using no-till practices. […] Compound 2 and paraquat treatments, alone and in combination, also included a surfactant. Glyphosate, alone and with Compound 2, included ammonium sulfate in the treatment mixture. […] The effects on the weeds in the treated plots and untreated control plots were recorded 30, 42, 46 and 68 days after application. Most of the weed species could not be evaluated at every timing. Corn response was not evaluated because the growth was highly variable depending on the efficacy of the weed control treatments. […] Results are the means of the three replicates.
# [3] = tested on: henbit deadnettle (LAMAM); assay: Test 9 field trial, emerged weeds before corn planting; format: in vivo, Lamium amplexicaule; details: g a.i./ha: Cpd 2 100, Glyphosate 1540, Paraquat 1150
# Method: (§4) Corn seeds (hybrid ‘Pioneer 34M91 RR’) were planted in mid spring season, about 3.8 cm deep in a silty clay loam soil having a pH of 6.7. Plots were 9.1 m long by 3.0 m. The field was managed using no-till practices. […] Compound 2 and paraquat treatments, alone and in combination, also included a surfactant. Glyphosate, alone and with Compound 2, included ammonium sulfate in the treatment mixture. […] The effects on the weeds in the treated plots and untreated control plots were recorded 7, 14, 23, 30 and 57 days after application. Most of the weed species could not be evaluated at every timing. Corn response was only evaluated 57 days after application. […] Results are the means of the three replicates.
# [4] = tested on: smallflower buttercup (RANAB); assay: as above; format: in vivo, Ranunculus abortivus; details: g a.i./ha: Cpd 2 100, Glyphosate 1540, Paraquat 1150
# Method: as §4
# [5] = tested on: common lambsquarters (CHEAL); assay: as above; format: in vivo, Chenopodium album; details: 57 DAA; g a.i./ha: Cpd 2 100, Glyphosate 1540, Paraquat 1150
# Method: as §4
# corn (ZEAMD) [6] = assay: as above; format: in vivo, Zea mays ssp. indentata; details: 57 DAA; g a.i./ha: Cpd 2 100, Glyphosate 1540, Paraquat 1150
# Method: as §4
# red deadnettle (LAMPU) [7] = assay: Test 3 field trial, emerged weeds before corn planting; format: in vivo, Lamium purpureum; details: Cpd 2 100, glyphosate 1540, paraquat 1150 g a.i./ha, alone or combined
# Description: as §3
# shepherd's purse (CAPBP) = assay: Test 9 field trial, emerged weeds before corn planting; format: in vivo, Capsella bursa-pastoris; details: g a.i./ha: Cpd 2 100, Glyphosate 1540, Paraquat 1150
# Method: as §4
# Canada horseweed (ERICA) = assay: as above; format: in vivo, Erigeron canadensis; details: g a.i./ha: Cpd 2 100, Glyphosate 1540, Paraquat 1150
# Method: as §4
# curly dock (RUMCR) = assay: Test 3 field trial, emerged weeds before corn planting; format: in vivo, Rumex crispus; details: Cpd 2 100, glyphosate 1540, paraquat 1150 g a.i./ha, alone or combined
# Description: as §3
# prickly lettuce (LACSE) = assay: Test 9 field trial, emerged weeds before corn planting; format: in vivo, Lactuca serriola; details: g a.i./ha: Cpd 2 100, Glyphosate 1540, Paraquat 1150
# Method: as §4
# common chickweed (STEME) [8] = assay: Test 3 field trial, emerged weeds before corn planting; format: in vivo, Stellaria media; details: Cpd 2 100, glyphosate 1540, paraquat 1150 g a.i./ha, alone or combined
# Description: as §3
# common chickweed (STEME) [9] = assay: Test 9 field trial, emerged weeds before corn planting; format: in vivo, Stellaria media; details: g a.i./ha: Cpd 2 100, Glyphosate 1540, Paraquat 1150
# Method: as §4
# giant ragweed (AMBTR) = assay: as above; format: in vivo, Ambrosia trifida; details: g a.i./ha: Cpd 2 100, Glyphosate 1540, Paraquat 1150
# Method: as §4
# giant foxtail (SETFA) = assay: Test 3 field trial, emerged weeds before corn planting; format: in vivo, Setaria faberi; details: 68 DAA; Cpd 2 100, glyphosate 1540, paraquat 1150 g a.i./ha, alone or combined
# Description: as §3
# red deadnettle (LAMPU) [10] = assay: Test 9 field trial, emerged weeds before corn planting; format: in vivo, Lamium purpureum; details: g a.i./ha: Cpd 2 100, Glyphosate 1540, Paraquat 1150
# Method: as §4
# common dandelion (TAROF) = assay: as above; format: in vivo, Taraxacum officinale; details: g a.i./ha: Cpd 2 100, Glyphosate 1540, Paraquat 1150
# Method: as §4
# bushy wallflower (ERYRE) = assay: as above; format: in vivo, Erysimum repandum; details: g a.i./ha: Cpd 2 100, Glyphosate 1540, Paraquat 1150
# Method: as §4
# [11] = tested on: Virginia pepperweed (LEPVI); assay: Test 3 field trial, emerged weeds before corn planting; format: in vivo, Lepidium virginicum; details: Cpd 2 100, glyphosate 1540, paraquat 1150 g a.i./ha, alone or combined
# Description: as §3
compound,measurement,setting,value
"CCOP(=O)(O)C(N)=O [Fosamine-ammonium, fosamine-ammonium, reference compound]",MXDSP Obs,mixed hardwoods (MXDSP),47
same,QUESS Obs,oak species (QUESS),33
O=C1OC(=O)c2cccc3cccc1c23 [Naphthalic anhydride],TRZAW Obs,wheat (TRZAW),0
same,ZEAMD Obs,corn (ZEAMD) [1],0
C[n+]1ccc(-c2cc[n+](C)cc2)cc1 [Paraquat],CHEAL Obs,[2],0%
same,LAMAM Obs,[3]; 7 DAA,93%
same,LAMAM Obs,[3]; 14 DAA,84%
same,LAMAM Obs,[3]; 23 DAA,85%
same,LAMAM Obs,[3]; 30 DAA,73%
same,LAMAM Obs,[3]; 57 DAA,81%
same,RANAB Obs,[4]; 7 DAA,98%
same,RANAB Obs,[4]; 14 DAA,100%
same,RANAB Obs,[4]; 23 DAA,100%
same,RANAB Obs,[4]; 30 DAA,100%
same,CHEAL Obs,[5],0%
same,ZEAMD Obs,corn (ZEAMD) [6],0%
same,LAMPU Obs,red deadnettle (LAMPU) [7]; 30 DAA,100%
same,LAMPU Obs,red deadnettle (LAMPU) [7]; 42 DAA,98%
same,LAMPU Obs,red deadnettle (LAMPU) [7]; 46 DAA,100%
same,CAPBP Obs,shepherd's purse (CAPBP); 7 DAA,89%
same,CAPBP Obs,shepherd's purse (CAPBP); 14 DAA,85%
same,CAPBP Obs,shepherd's purse (CAPBP); 23 DAA,77%
same,CAPBP Obs,shepherd's purse (CAPBP); 30 DAA,72%
same,CAPBP Obs,shepherd's purse (CAPBP); 57 DAA,93%
same,ERICA Obs,Canada horseweed (ERICA); 7 DAA,95%
same,ERICA Obs,Canada horseweed (ERICA); 14 DAA,96%
same,ERICA Obs,Canada horseweed (ERICA); 23 DAA,99%
same,ERICA Obs,Canada horseweed (ERICA); 30 DAA,100%
same,ERICA Obs,Canada horseweed (ERICA); 57 DAA,81%
same,RUMCR Obs,curly dock (RUMCR); 30 DAA,58%
same,RUMCR Obs,curly dock (RUMCR); 42 DAA,58%
same,RUMCR Obs,curly dock (RUMCR); 46 DAA,13%
same,RUMCR Obs,curly dock (RUMCR); 68 DAA,15%
same,LACSE Obs,prickly lettuce (LACSE); 7 DAA,97%
same,LACSE Obs,prickly lettuce (LACSE); 14 DAA,95%
same,LACSE Obs,prickly lettuce (LACSE); 23 DAA,100%
same,LACSE Obs,prickly lettuce (LACSE); 30 DAA,100%
same,LACSE Obs,prickly lettuce (LACSE); 57 DAA,100%
same,STEME Obs,common chickweed (STEME) [8]; 30 DAA,96%
same,STEME Obs,common chickweed (STEME) [8]; 42 DAA,97%
same,STEME Obs,common chickweed (STEME) [8]; 46 DAA,88%
same,STEME Obs,common chickweed (STEME) [9]; 7 DAA,99%
same,STEME Obs,common chickweed (STEME) [9]; 14 DAA,99%
same,STEME Obs,common chickweed (STEME) [9]; 23 DAA,100%
same,STEME Obs,common chickweed (STEME) [9]; 30 DAA,100%
same,STEME Obs,common chickweed (STEME) [9]; 57 DAA,98%
same,AMBTR Obs,giant ragweed (AMBTR); 7 DAA,100%
same,AMBTR Obs,giant ragweed (AMBTR); 14 DAA,100%
same,AMBTR Obs,giant ragweed (AMBTR); 57 DAA,70%
same,SETFA Obs,giant foxtail (SETFA),0%
same,LAMPU Obs,red deadnettle (LAMPU) [10]; 7 DAA,79%
same,LAMPU Obs,red deadnettle (LAMPU) [10]; 14 DAA,80%
same,LAMPU Obs,red deadnettle (LAMPU) [10]; 23 DAA,81%
same,LAMPU Obs,red deadnettle (LAMPU) [10]; 30 DAA,70%
same,TAROF Obs,common dandelion (TAROF); 7 DAA,79%
same,TAROF Obs,common dandelion (TAROF); 14 DAA,69%
same,TAROF Obs,common dandelion (TAROF); 23 DAA,61%
same,TAROF Obs,common dandelion (TAROF); 30 DAA,33%
same,TAROF Obs,common dandelion (TAROF); 57 DAA,0%
same,ERYRE Obs,bushy wallflower (ERYRE); 7 DAA,98%
same,ERYRE Obs,bushy wallflower (ERYRE); 14 DAA,94%
same,ERYRE Obs,bushy wallflower (ERYRE); 23 DAA,98%
same,ERYRE Obs,bushy wallflower (ERYRE); 30 DAA,100%
same,ERYRE Obs,bushy wallflower (ERYRE); 57 DAA,80%
same,LEPVI Obs,[11]; 30 DAA,100%
same,LEPVI Obs,[11]; 42 DAA,96%
same,LEPVI Obs,[11]; 46 DAA,100%
